According to patent US20250339447A1, “19-NOR C3,3-DISUBSTITUTED C21-N-PYRAZOLYL STEROID AND METHODS OF USE THEREOF” (Sage Therapeutics, Inc., priority 2018, published 2025):

What was measured:
[1] = test system: synaptic and extrasynaptic GABAA receptors; assay: Modulation of GABAA receptors; conditions: stated in background
subjects with MDD [2] = assay: HAM-D course to Day 42 after a Compound 1 treatment cycle (source study not given); type: in vivo, human
Excerpt: Because of this, most subjects were eligible (i.e., PHQ-9 ≥10 and HAM-D ≥20 confirmed over 2 weeks) for a Compound 1 treatment cycle when needed; a 2-week period was required to establish a new MDE (DSM-5).

[3] = test system: female subjects diagnosed with severe postpartum depression; assay: Placebo-controlled study of Compound 1 capsules in severe postpartum depression (Example 1); type: in vivo, human
Method: Compound 1 was investigated for use in subjects with depression. Female subjects (18-65 years old) diagnosed with severe postpartum depression (PDD) with a HAM-D total score of greater than or equal to 26 at screening and Day 1 were used in the investigation. The subjects were dosed once per day with capsules containing 30 mg of Compound 1. The dose could be adjusted to capsules containing 20 mg of Compound 1 if the 30 mg dose was not tolerated. Subjects not dosed with Compound 1 were dosed with a placebo. In total, 78 subjects were treated with Compound 1 at 30 mg and 73 subjects were treated with placebo.
Assuming a 2-sided test at an alpha level of 0.05, a sample size of approximately 65 evaluable subjects per treatment group provided 90% power to detect a placebo-adjusted treatment difference of approximately 4 points in the primary endpoint, change from baseline in HAM-D total score at Day 15 assuming standard deviation (SD) of 7 points. The change from baseline in the HAM-D total score was analyzed using a mixed effects model for repeated measures (MMRM). The model included the change from baseline at each visit as the dependent variable. The main comparison was (difference in least mean square [LSMEAN]) between Compound 1 Capsules and placebo at the 15-day timepoint.
For Model-based point estimates (i.e., LSMEAN, 95% confidence intervals, and p-values), an unstructured covariance structure was used to model the within-subject errors. If there was a convergence issue with the unstructured covariance model, Toeplitz, compound symmetry or Autoregressive (1) (AR[1]) covariance structure was used, following this sequence until convergence was achieved. […] When the covariance structure was not UN, the sandwich estimator for the variance-covariance matrix was derived, using the EMPIRICAL option in the PROC MIXED statement in SAS.
Similarly, an MMRM was used for the analysis of the following variables: changes from baseline in MADRS total score and HAM-A total score, and select individual item and subscale scores. For each model, the comparison of interest was between Compound 1 Capsules and matching placebo at the 15-day time point. Model-based point estimates (i.e., LS means), 95% confidence intervals, and p-values were reported.

[4] = Previous clinical trials, morning versus evening administration; type: in vivo, human
Excerpt: (§1) Dose adjustments to 20-mg of Compound 1 were permitted; 20-mg of Compound 1 was anticipated to be well tolerated as it was lower than the maximum tolerated dose level.

subjects with MDD [5] = assay: Phase 2 study in subjects with MDD (dose justification); type: in vivo, human; conditions: 30 mg per day
Excerpt: as §1

[6] = test system: adult patients diagnosed with MDD (MADRS total score ≥32 and HAM-D total score ≥22); assay: Double-blind, randomized placebo-controlled Phase 3 study in Major Depressive Disorder (Example 5); type: in vivo, human; conditions: for overall incidence of patients who experienced AEs: 14-day treatment period and 28-day follow up, placebo 48.9%; for Fatigue incidence: placebo 2.6%; for Sedation incidence / treatment emergent AEs leading to study drug discontinuation: placebo 3.2%; for Dizziness incidence: placebo 3.7%; for Somnolence incidence: placebo 4.2%; for Nausea incidence: placebo 4.7%; for Diarrhea incidence: placebo 5.3%; for Headache incidence: treatment and 28-day follow up, placebo 7.4%
Method: Compound 1 was evaluated in a double-blind, randomized placebo-controlled Phase 3 study in Major Depressive Disorder (MDD). The evaluated the efficacy, safety and pharmacokinetics of Compound 1 in adult patients diagnosed with MDD (MADRS total score ≥32 and a HAM-D total score ≥22).
Compound 1 was administered to a patient, either in 20 mg daily doses once a day for 14 days or 30 mg once a day for 14 days.
Post-hoc analyses were conducted to evaluate the effects of performance factors of Compound 1 in the primary analysis, in patients with measurable drug concentrations, in patients with HAM-D≥24, and in patients with measurable drug concentrations and HAM-D≥24, and including the primary outcome at Day 15 (FIG. 11).

[7] = Day 42, among subjects achieving remission or response at Day 15

With `C[C@@]1(O)CC[C@H]2[C@H](CC[C@@H]3[C@@H]2CC[C@]2(C)[C@@H](C(=O)Cn4cc(C#N)cn4)CC[C@@H]32)C1` [Compound 1] the “mode of action at GABAA receptors” value [1] was “positive allosteric modulator”, the “subjects achieving remission or response” value (subjects with MDD [2]; Day 15) was 78.6% and the “subjects with HAM-D score of 16 to 21” value (subjects with MDD [2]; [7]) was 18.2%. The “subjects with HAM-D ≥22” value (subjects with MDD [2]; [7]) was 6.1%, the overall efficacy conclusion ([3]; 30 mg once a day for 15 days, compared to placebo) was “effective at treating postpartum depression” and the “mean decrease from baseline in HAM-D total score” value ([3]; 30 mg once daily, Day 15, mean baseline 28.4 (2.09), placebo −13.6 (8.31)) was −18.0 (8.36). The “model-based between treatment group difference in HAM-D total score change (95% CI)” value ([3]; 30 mg vs placebo, Day 15, MMRM, p 0.0029) was −4.2 (−6.9, −1.5), the “model-based between treatment group difference in HAM-A total score change (95% CI)” value ([3]; 30 mg vs placebo, Day 15, p 0.0063) was −3.90 (−6.7, −1.1) and the “model-based between treatment group difference in MADRS total score change (95% CI)” value ([3]; 30 mg vs placebo, Day 15, p=0.0182) was −4.6 (−8.3, −0.8). For the same compound, the “CGI-I response, model-based odds ratio (95% CI)” value ([3]; 30 mg vs placebo, Day 15, p=0.0280) was 2.15 (1.09, 4.27), the “HAM-D response, model-based odds ratio (95% CI)” value ([3]; 30 mg vs placebo, p=0.0050) was 2.63 (1.34, 5.16) and the “HAM-D remission, model-based odds ratio (95% CI)” value ([3]; 30 mg vs placebo, p=0.0122) was 2.50 (1.22, 5.11). The CGI-I response rate ([3]; 30 mg, Day 15, 53/74 subjects, placebo 38/73 (52.1%)) was 71.6%, the “mean decrease from baseline in MADRS total score” value ([3]; 30 mg, Day 15, baseline 34.9 (4.41), placebo −17.7 (11.72)) was −22.0 (11.64) and the “mean decrease from baseline in HAM-A total score” value ([3]; 30 mg, Day 15, mean baseline 26.1 (5.88), placebo −12.9 (8.57)) was −16.5 (9.51). For the same compound, the HAM-D remission rate ([3]; 30 mg, 33/74 subjects, placebo 17/73 (23.3%)) was 44.6%, the HAM-D response rate ([3]; 30 mg, 53/74 subjects, placebo 35/73 (47.9%)) was 71.6% and the adverse effect observed ([4]; administered in the morning) was “sedation/somnolence”. For the same compound, the tolerability ([4]; given in the evening) was “improved tolerability”, the “efficacy and tolerability of the dose level” value (subjects with MDD [5]) was “efficacious and well-tolerated” and the “tolerability in the trial” value ([6]; 20 mg and 30 mg) was “generally well tolerated”. For the same compound, the separation from placebo ([6]; 20 mg once a day for 14 days) was “did not separate from placebo”, the “overall incidence of patients who experienced AEs” value ([6]; 20 mg) was 50.0% and the “patients reporting SAEs during follow-up” value ([6]; 20 mg, complications of cocaine ingestion, Day 39) was “one”. For the same compound, the Fatigue incidence ([6]; 20 mg) was 1.6%, the Sedation incidence ([6]; 20 mg) was 5.9% and the “treatment emergent AEs leading to study drug discontinuation” value ([6]; 20 mg) was 1.6%. It also gave a Dizziness incidence ([6]; 20 mg) of 7.4%, a Somnolence incidence ([6]; 20 mg) of 5.9% and a Nausea incidence ([6]; 20 mg) of 5.3%. The Diarrhea incidence ([6]; 20 mg) was 5.9%, the Headache incidence ([6]; 20 mg) was 11.2% and the “HAM-D total score, LS Mean Difference from placebo” value ([6]; 30 mg (n=166) vs placebo (n=157), Day 3, p=0.016) was −1.6. For the same compound, the “reduction in depressive symptoms in the HAM-D total score” value ([6]; 30 mg once a day for 14 days, Day 15 (primary endpoint), placebo 11.2) was 12.6, the “HAM-D total score, LS Mean Difference, post-hoc” value ([6]; 30 mg vs placebo, Day 15, patients with HAM-D≥24, p=0.032) was −2.3 and the “HAM-D total score, LS Mean Difference from placebo” value ([6]; 30 mg, Day 8, p=0.008) was −2.1. For the same compound, the “HAM-D total score, LS Mean Difference from placebo” value ([6]; 30 mg, Day 12, p=0.018) was −2.1, the “HAM-D total score, LS Mean Difference from placebo” value ([6]; 30 mg, Day 15, p=0.115) was −1.4 and the “change from baseline in HAM-D total score, post-hoc” value (shortened to “change from baseline … post-hoc”) ([6]; 30 mg, Day 15, patients with HAM-D≥24 (n=124), placebo −11.4) was −13.7. For the same compound, the “change from baseline … post-hoc” value ([6]; 30 mg, Day 15, patients with measurable drug concentrations (n=151), placebo −11.2) was −13.0, the “change from baseline … post-hoc” value ([6]; 30 mg, Day 15, patients with measurable drug concentrations and HAM-D≥24 (n=115), placebo −11.4) was −14.0 and the “HAM-D total score, LS Mean Difference from placebo” value ([6]; 30 mg, Day 42, p=0.807) was −0.5. For the same compound, the “change from baseline in HAM-D total score” value ([6]; 30 mg, Day 42, placebo −11.7) was −11.9, the “overall incidence of patients who experienced AEs” value ([6]; 30 mg) was 54.2% and the Fatigue incidence ([6]; 30 mg) was 6.8%. For the same compound, the Sedation incidence ([6]; 30 mg) was 4.7%, the “treatment emergent AEs leading to study drug discontinuation” value ([6]; 30 mg) was 2.1% and the Dizziness incidence ([6]; 30 mg) was 5.7%. It also gave a Somnolence incidence ([6]; 30 mg) of 6.8%, a Nausea incidence ([6]; 30 mg) of 3.6% and a Diarrhea incidence ([6]; 30 mg) of 6.3%. For the same compound, the “patients with serious adverse events (SAEs) during treatment” value ([6]; 30 mg, suicide attempt Day 5, bile duct stone after Day 2) was “Two”, the “patients reporting SAEs during follow-up” value ([6]; 30 mg, syncope and associated injuries, Day 28) was “one” and the Headache incidence ([6]; 30 mg) was 6.3%. For the same compound, the “AEs of loss of consciousness” value ([6]; all groups) was “no AEs of loss of consciousness”, the “suicidal ideation or behavior by Columbia Suicide Severity Rating Scale (C-SSRS)” value ([6]; compared to baseline) was “no signal for increased suicidal ideation or suicidal behavior” and the “depressive symptoms in long-term follow-up” value ([6]; patients who completed long-term follow-up up to 6 months, preliminary data) was “maintenance of improvement in depressive symptoms”.
